According to publication PMC8652888, “Angiogenesis, Anti-Tumor, and Anti-Metastatic Activity of Novel α-Substituted Hetero-Aromatic Chalcone Hybrids as Inhibitors of Microtubule Polymerization” (Frontiers in Chemistry, 2021):
Where “and” joins values, the source holds several entries; their conditions need not be identical. Equal entries are not always repeated. Where two headings read alike, the source gives them in different places.

Legend:
[1] = tested on: microtubule network in MCF-7 cells; assay: Immunofluorescent staining of microtubule network; format: cell-based, human; conditions: 0.4 μM, 24 h
Method: Microtubule dynamics play an essential role in cancer cell growth. To examine whether compound 7m is able to disrupt microtubule dynamics, an immunofluorescent assay was carried out in MCF-7 cells.
Then the cells were washed with PBS three times. After permeabilization with 0.25% Triton X-100 for 5 min, the cells were washed with PBS three times and blocked in 5% bovine serum albumin (BSA) for 40 min. The cells were incubated with rabbit anti-α-tubulin primary antibody containing 5% BSA at room temperature for 5–6 h and washed with PBS three times. Cells were finally visualized under a fluorescence microscope.

MCF-7 = assay: Antiproliferative activity, SRB assay; format: cell-based, human;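 further: proliferation of MCF7 cells quantified by sulforhodamine B staining, with optical density read at 560 nm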
Method: The synthesized compounds were first evaluated for their cytotoxic effect on MCF-7 (human breast adenocarcinoma), U937 (histiocytic lymphoma cancer), HepG2 (human liver cancer) cells, and MGC-803 (human gastric cancer) using the SRB and CCK-8 assay.
The primary tumor cells were purchased from a professional biomedical company. First, the primary tumor cells were incubated in a cell culture incubator at 37°C and 5% CO2. After the cell fusion reached 85%–95%, subculture was performed, and the tumor cells obtained at this time were used for subsequent related experiments. The CCK-8 method was used to inhibit the proliferation of U937 tumor cells, and the SRB method was used to inhibit the proliferation of MCF7 and HepG2 tumor cells.
Cells were distributed into 96-well plates with a density of 3 × 10^3–4 × 10^3 cells per well and incubated for 24 h in a 5% CO2 incubator at 37°C, followed by treatment with study compounds at different concentrations at 37°C for 72 h. One hundred microliters of 10% (w/v) trichloroacetic acid was added to each well, fixed at 4°C for 30 min, and dried at 65°C. Then 100 μl of 0.4% SRB was added to each well and stained on a shaker for 20 min at room temperature. The excess dye solution was washed with newly prepared 1% glacial acetic acid and dried at 65°C. One hundred fifty microliters of 10 mM unbuffered Trisbase was added to each well of the plate and shaken for 5 min to dissolve the dye. The microplate reader measured the optical density (OD) at a wavelength of 560 nm.

[2] = tested on: taxol-resistant MCF7 cells (MCF7/Tax); assay: Growth inhibition of taxol-resistant cells; format: cell-based, human
MCF-7 cells [3] = assay: Wound healing assay; format: cell-based, human; conditions: 48 h
Method: In order to evaluate whether 7m could suppress migration and invasion, the MCF-7 cell culture was performed by wound healing and Transwell Matrigel assay, respectively.
(§1) MCF-7 cells and HUVECs cells were grown in 24-well plates at a density of 1 × 10^6 cells per well for 24 h. Scratches were made in confluent monolayers by […] pipette tips. The media containing different concentrations of 7m were added to the Petri dishes. […] The migration distance of cells migrated to the wound area was measured manually.

MCF-7 cells [4] = assay: Cell cycle analysis, flow cytometry with PI staining; format: cell-based, human; conditions: for G2/M cells: 24 h; for G0/G1, single runs / G0/G1 AVERAGE / G2/M, single runs / S AVERAGE / S, single runs / G2/M AVERAGE: flowjo raw data
Method: It is known that tubulin inhibitors block the cell cycle in the G2/M phase because of microtubule depolymerization and cytoskeleton disruption. Therefore, the effects of 7m on cell cycle progression of MCF-7 cells were analyzed by flow cytometry with PI staining. MCF-7 cells were treated with different concentrations (0, 100, 200, and 400 nM) of compound 7m for 24 h and 200 nM 7m at different times (0, 6, 12, and 24 h), respectively. […] When the concentration was increased to 200 and 400 nM, cells of 47% and 56% G2/M phase arrest were observed, respectively. Similarly, this phenomenon occurred after treatment with 200 nM 7m from 0 to 24 h.
MCF-7 cells were seeded into six-well plates (5 × 10^5 cells/well) and incubated at 37°C in a humidified 5% CO2 incubator for 24 h, and then treated with or without compound 7m at indicated concentrations (100, 200, 400 nM). The collected cells were fixed by adding 70% of ethanol at −20°C for 12 h. The cells were then washed with PBS, incubated with […] of RNase at 37°C for 30 min, and stained with […] of propidium iodide for 15 min, and finally subjected to flow cytometry.

U937 = assay: Antiproliferative activity, CCK-8 assay; format: cell-based
Method in brief: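 U937 cells in log phase seeded at 8,000/well with compound-containing medium and incubated 72 h at 37 °C, 5% CO2. Proliferation read by CCK-8 dye after a further 3–4 h incubation, against blank-medium wells.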

HUVECs = assay: Wound healing assay; format: cell-based, human; conditions: 1, 5, 25 μΜ, 48 h
Method: A wound healing assay was, thus, performed to evaluate the capacity of 7m to inhibit cell motility. […] Then the invasion inhibitory activities of 7m were further detected using Transwell assay with HUVECs cells treated with 0, 1, 5, and 25 μΜ of 7m. In this assay, […] were seeded into upper chambers which were pre-coated with Matrigel matrix in order to evaluate the cellular invasion.
as §1

tubulin = assay: Tubulin polymerization in vitro (fluorescence); format: biochemical; conditions: 37°C; read-out: IC50, inhibition of tubulin polymerization
Method: Data are presented as the mean ± SD from three independent experiments. **p < 0.01 vs. the vehicle control.
An in vitro assay was performed to monitor the time-dependent polymerization of tubulin into microtubules. The 96-well cell culture plate was incubated at 37°C for 10 min, and test compounds and reference compounds were prepared with a 10× analyte stock solution. Five microliters of 10× analyte stock solution was added to a 96-well plate, and the microplate reader was heated at 37°C for 1 min. Immediately 85 μl of Tubulin Stock was drawn and mixed with the above mixture to prepare the tubulin reaction solution, and 50 μl of the tubulin reaction solution was to each well. The multifunctional microplate reader measured the absorbance, and the measured fluorescence value represents the level of tubulin in the polymerized state in the reaction solution.

Substance: 3-(benzofuran-6-yl)-2-methyl-1-(3,4,5-trimethoxyphenyl)prop-2-en-1-one [Compound 7m]
- effect on microtubule organization [1]: significant disruption of microtubule organization
- IC50 (MCF-7; 72 h, triplicate, mean ± SD, read-out: IC50 ± SD, MCF-7): 183 ± 32 nM
- IC50 (MCF-7; Table 3, triplicate, read-out: IC50 ± SD, MCF7): 183 ± 32 nM
- IC50 (MCF-7; three single determinations, read-out: MCF-7 (raw data of table 3, IC50)): 146 nM and 223 nM and 180 nM
- Resistant fold ([2]; (IC50 MCF7/Tax)/(IC50 MCF7)): 1.2
- IC50 ([2]; three single determinations, read-out: MCF-7/Taxol (raw data of table 3, IC50)): 242 nM and 181 nM and 216 nM
- IC50 ([2]; triplicate, read-out: IC50 ± SD, MCF7/Tax): 213 ± 26 nM
- wound healing of MCF-7 cells (migration) (MCF-7 cells [3]): significantly inhibited the wound healing
- G2/M cells (MCF-7 cells [4]; 100 nM): 26%
- G0/G1, single runs (MCF-7 cells [4]; 100nM): 61.76 and 47.12
- G0/G1 AVERAGE (MCF-7 cells [4]; 100nM): 54.44
- G2/M, single runs (MCF-7 cells [4]; 100nM): 15.14 and 28.34
- S AVERAGE (MCF-7 cells [4]; 100nM): 23.82
- S, single runs (MCF-7 cells [4]; 100nM): 23.1 and 24.54
- G0/G1, single runs (MCF-7 cells [4]; 200nM dose series): 40.1 and 25.72
- G0/G1 AVERAGE (MCF-7 cells [4]; 200nM dose series): 32.91
- G2/M, single runs (MCF-7 cells [4]; 200nM dose series): 40.78 and 56.03
- S AVERAGE (MCF-7 cells [4]; 200nM dose series): 18.685
- S, single runs (MCF-7 cells [4]; 200nM dose series): 19.12 and 18.25
- G0/G1, single runs (MCF-7 cells [4]; 200nM, 6h): 55.81 and 61.73
- G0/G1 AVERAGE (MCF-7 cells [4]; 200nM, 6h): 58.77
- G2/M AVERAGE (MCF-7 cells [4]; 200nM, 6h): 29.28
- G2/M, single runs (MCF-7 cells [4]; 200nM, 6h): 36.18 and 22.38
- S AVERAGE (MCF-7 cells [4]; 200nM, 6h): 15.51
- G0/G1, single runs (MCF-7 cells [4]; 200nM, 12h): 34.65 and 32.01
- G0/G1 AVERAGE (MCF-7 cells [4]; 200nM, 12h): 33.33
- G2/M AVERAGE (MCF-7 cells [4]; 200nM, 12h): 41.805
- G2/M, single runs (MCF-7 cells [4]; 200nM, 12h): 44.73 and 38.88
- S AVERAGE (MCF-7 cells [4]; 200nM, 12h): 25.405
- S, single runs (MCF-7 cells [4]; 200nM, 12h): 23.93 and 26.88
- G2/M cells (MCF-7 cells [4]; 200 nM, dose series (Fig 6A)): 47%
- G0/G1, single runs (MCF-7 cells [4]; 200nM, 24h): 6.61 and 3.51
- G0/G1 AVERAGE (MCF-7 cells [4]; 200nM, 24h): 5.06
- G2/M AVERAGE (MCF-7 cells [4]; 200nM, 24h): 91.725
- G2/M, single runs (MCF-7 cells [4]; 200nM, 24h): 93.1 and 90.35
- S AVERAGE (MCF-7 cells [4]; 200nM, 24h): 5.79
- G0/G1, single runs (MCF-7 cells [4]; 400nM): 16.1 and 15.39
- G0/G1 AVERAGE (MCF-7 cells [4]; 400nM): 15.745
- G2/M AVERAGE (MCF-7 cells [4]; 400nM): 67.3
- G2/M, single runs (MCF-7 cells [4]; 400nM): 66.98 and 67.62
- S AVERAGE (MCF-7 cells [4]; 400nM): 16.955
- S, single runs (MCF-7 cells [4]; 400nM): 16.92 and 16.99
- IC50 (U937; 72 h, triplicate, mean ± SD, read-out: IC50 ± SD, U937): 82 ± 2 nM
- IC50 (U937; supplement raw data of table 2, read-out: IC50(U937)): 81.6 nM
- closure of wound scratching (HUVECs): obviously decreased the closure of wound scratching
- IC50 (tubulin): 12200 nM
